Entries after “also recorded” stand apart in the source; their conditions may differ. Bridge positions count the residues as written; N and C are the ends. Square brackets hold non-standard residues; d marks the D form. Peptide text beside a SMILES is read from it. R8 = C=CCCCCCC[C@@](C)(N)C(=O)O; S5 = C=CCCC[C@](C)(N)C(=O)O
What was measured:
[1] = system: APC/C; experiment: Ubiquitinated securin (Mean ± SD); details: 100 µM
Description: Table printed on a drawing sheet, Figure 6
Head of the field: Ubiquitinated securin (Mean ± SD)

[2] = target: T1, APC/C (APC11) (Homo sapiens, UniProt Q9NYG5); experiment: Pull-down binding assay in HeLa K cell extract, APC/C; details: Pra peptide clicked to azide agarose or magnetic beads, Western blot
T1 construct: endogenous in cells; host or cells: HeLa K cell extract
Protocol: For the protein transfer, the 0.45 μm Immobilon-FL PVDF membrane (Merck Millipore) was used. The membrane was activated in ethanol and then transferred to the Blotting buffer (50 mM SDS-MOPS, 50 mM Tris base, 0.1% SDS, 1 mM EDTA, 20% EtOH). The proteins were transferred using a wet transfer for 1.5 h at 400 mA. Subsequently, the membrane was incubated with the blocking solution, 10% milk in PBS-T (0.02% Tween-20 in PBS), for 1 h at room temperature. To detect proteins of the interest, the membrane was incubated with primary antibodies overnight at 4° C. Followed by washing the membrane 3 times 10 min with PBS-T and incubation with IRDye fluorescently labelled secondary antibodies for 1 h. Prior detection, the membrane was twice washed with PBS-T for 10 min and once with PBS for 10 min. The detection was done using the quantitative near-infrared scanning system Odyssey (LI-COR Biosciences).
HeLa K cell pellet was re-suspended in the extraction buffer (30 mM HEPES pH 7.5, 175 mM NaCl, 2.5 mM MgCl2, 0.25% NP40, 10% glycerol, 1 mM DTT) supplemented with 10 μM MG132 (VWR), 1 mM PMSF (Sigma-Aldrich), complete protease inhibitor cocktail (Roche) and PhosSTOP phosphatase inhibitors (Roche) and incubated for 20 min on ice, followed by centrifugation of cell debris for 15 min at 4° C. 16 100 g. In mean time, inhibitor molecules containing Propargyl (Pra) chemical group were covalently attached to the azide agarose or azide magnetic resin (Jena Bioscience) by Cu(I)-catalysed azide-alkyne cycloaddition reaction. Specifically, the inhibitor molecules were mixed with azide agarose resin in ratio 0.125 μmol inhibitor/25 μl agarose resin and azide magnetic resin in ratio 0.018 μmol inhibitor/20 μl magnetic resin. The reaction was catalysed by 1 mM CuSO4, 0.1 mM TBTA (Sigma-Aldrich) and 1 mM Sodium ascorbate and was performed on the rotating wheel for 30 min at room temperature in the volume of 1 ml. Subsequently, the resin was washed 5 times with the extraction buffer. The inhibitor-agarose resin was added to 1 mg of HeLa K cell extract and the inhibitor-magnetic resin was added to 0.5 mg of HeLa K cell extract followed by incubation at 4° C. for 2 h. Followed by washing the resin 5 times with the extraction buffer. Pull-down proteins were eluted by boiling for 15 min with 1×LDS sample buffer supplemented with 100 mM DTT (agarose resin) or by incubation with 1×LDS sample buffer for 10 min at room temperature followed by taking supernatant that was supplemented with 100 mM DTT and boiling it for 10 min. Samples were subjected to SDS PAGE and Western blot analysis.
HeLa K cell pellet was re-suspended in the extraction buffer (30 mM HEPES pH 7.5, 175 mM NaCl, 2.5 mM MgCl2, 0.25% NP40, 10% glycerol, 1 mM DTT supplied with complete protease inhibitor cocktail (Roche), PhosSTOP phosphatase inhibitors (Roche), 1 mM PMSF, 10 μM MG132) and incubated for 20 min on ice, followed by centrifugation to clear the lysate for 15 min at 4° C. 16,100 g. In the meantime, inhibitor molecules containing the propargyl-Gly-OH (Pra) chemical group were covalently attached to the azide agarose resin (Jena Bioscience) by Cu(I)-catalysed azide-alkyne cycloaddition reaction. Specifically, the inhibitor molecules were mixed with azide agarose resin in ratio 0.125 μmol inhibitor/20 μl agarose resin. The reaction was catalysed by 0.1 mM CuSO4, 0.5 mM THPTA (Sigma-Aldrich) and 5 mM Sodium ascorbate and was performed on the rotating wheel for 30 min at room temperature in the volume of 1 ml. […]

[3] = target: T2, APC/C (Homo sapiens, UniProt Q9NYG5); experiment: In vitro APC/C ubiquitination assay driven by the E2 enzyme UBE2C, fluorophore-labelled securin substrate; format: biochemical
T2 construct: made in house; host or cells: SF9 insect cells (baculovirus)
Protocol: (§1) Proteins were separated by SDS-PAGE electrophoresis using precast Bolt 4-12% Bis-Tris Plus protein gels (Thermo Fisher Scientific) and Criterion XT Bis-Tris Midi Protein Gels (Bio-Rad). In different experiments, various conditions were used: in vitro APC/C ubiquitination assays—165 V, 40 min, SDS-MES running buffer (50 mM MES, 50 mM Tris base, 0.1% SDS, 1 mM EDTA, pH 7.3; Thermo Fisher Scientific); in vitro APC/C ubiquitination assays determining KM—165V, 1 h, SDS-MOPS running buffer (50 mM MOPS, 50 mM Tris base, 0.1% SDS, 1 mM EDTA, pH 7.7; Thermo Fisher Scientific); pull-down binding assay—165 V, 35 min, SDS-MES running buffer.
APC/C-dependent ubiquitination reactions were performed at 30° C. in 30 mM HEPES pH 7.4, 175 mM NaCl, 8 mM MgCl2, 0.05% Tween-20, 1 mM DTT and 5% glycerol and contained 20 nM recombinant APC/C (note, for testing the first generation of inhibitors, APC/C and Cdc20 immunoprecipitated from mitotic HeLa K cells was used), 340 nM Cdc20, 46 nM GST-UBA1, 340 nM UBE2C (alternatively 400 nM UBE2D1, 280 nM UBE2S), 21 μM His6-ubiquitin or if it is indicated 21 μM methylated-ubiquitin (BostonBiochem), 2.6 mM ATP, 10 mM phosphocreatine and 11 μM creatine kinase. As substrates, 35 nM fluorophore-labeled ubiquitin-cyclin B and 50 nM fluorophore-labeled securin were standardly used (fluorophore IRDye 800CW (LI-COR) was used for labelling). In case of KM and kcat determination, 50, 100, 250, 500, 750, 1000, 1250, 2500 and 5000 nM fluorophore-labelled securin was used. The reaction was done in the volume of 15 μl, it was quenched after the indicated time with LDS sample buffer (Thermo Fisher Scientific) supplemented with 100 mM DTT and subjected to SDS-PAGE. Detection of fluorescently labelled substrates was done by quantitative near-infrared scanning system Odyssey.

[4] = target: T2, APC/C; experiment: In vitro APC/C ubiquitination assay with different E2 enzymes (UBE2C, UBE2D, UBE2S), Ub-cyclin B1 substrate; format: biochemical; details: 100 μM, reaction time 40 min
Protocol: as §1
APC/C-dependent ubiquitination reactions were performed at 30° C. in 30 mM HEPES pH 7.4, 175 mM NaCl, 8 mM MgCl2, 0.05% Tween-20, 1 mM DTT and 5% glycerol and contained 20 nM recombinant APC/C (note, for testing the first generation of inhibitors, APC/C and Cdc20 immunoprecipitated from mitotic HeLa K cells was used), 340 nM Cdc20, 46 nM GST-UBA1, 340 nM UBE2C (alternatively 400 nM UBE2D1, 280 nM UBE2S), 21 μM His6-ubiquitin or if it is indicated 21 μM methylated-ubiquitin (BostonBiochem), 2.6 mM ATP, 10 mM phosphocreatine and 11 μM creatine kinase. […] Detection of fluorescently labelled substrates was done by quantitative near-infrared scanning system Odyssey.

[5] = system: A549 cells; experiment: Live cell imaging of A549 cells; format: cell-based, human; details: A549, 50 μM, imaged 24 h
Protocol: (§2) Automated time-lapse microscopy was performed using ImageXpress Micro XLS wide-field screening microscope (Molecular Devices) equipped with a 10×, 0.5 NA., 20×, 0.7 NA, and 40×, 0.95 NA Plan Apo air objectives (Nikon), a laser-based autofocus and a full environmental control (5% CO2, 37° C.). Cells were grown in 96-well plastic bottom plates (clear, Greiner Bio-One) and for live cell imaging media was changed to imaging media. Imaging media for A549, HeLa K and SW480 was DMEM without phenol red and riboflavin (Thermo Fisher Scientific), supplemented with 10% (v/v) FBS, 1% (v/v) Glutamax, and 1% (v/v) penicillin-streptomycin; imaging media for HT-1080 and RKO was RPMI 1640 without phenol red (Thermo Fisher Scientific), supplemented with 10% (v/v) FBS, and 1% (v/v) penicillin-streptomycin.
(§3) A549 (5000-5500 cells), HeLa K (3000-4000 cells), HT-1080 (4000 cells), RKO (5000 cells), and SW480 (7000-8000 cells) cells were seeded into 96-well plates one day prior to treatment with compounds of the invention. Cells were treated with 50 μM of compound G3_mod1_mini PEG and cell division was monitored by live cell imaging using an ImageXpress Micro XLS wide-field screening microscope and images were acquired every 3 min for time courses of 24 h. The length of mitosis was determined manually.

[6] = system: HT-1080 cells; experiment: Live cell imaging of HT-1080 cells; format: cell-based, human; details: HT-1080, 50 μM, imaged 24 h
Protocol: as §2, §3

[7] = system: HeLa K cells; experiment: Live cell imaging of HeLa K cells; format: cell-based, human; details: 50 μM
Protocol: Automated time-lapse microscopy was performed using ImageXpress Micro XLS wide-field screening microscope (Molecular Devices) equipped with a 10×, 0.5 NA., 20×, 0.7 NA, and 40×, 0.95 NA Plan Apo air objectives (Nikon), a laser-based autofocus and a full environmental control (5% CO2, 37° C.). Cells were grown in 96-well plastic bottom plates (clear, Greiner Bio-One) and for live cell imaging media was changed to DMEM without phenol red and riboflavin (Thermo Fisher Scientific), supplemented with 10% (v/v) FBS, 1% (v/v) Glutamax, 1% (v/v) penicillin-streptomycin, and 0.5 μg/ml amphotericin B.
HeLa K cells were seeded into 96-well plates (4000-4500 cells) one day prior the treatment with compounds of the invention. Cells were treated with 50 μM of compound G3_mod1_mini PEG and cell division was monitored by live cell imaging using ImageXpress Micro XLS wide-field screening microscope, images were acquired every 3 min for time courses of 48 h. The length of mitosis was determined manually.
as §2, §3

[8] = system: SW480 cells; experiment: Live cell imaging of SW480 cells; format: cell-based, human; details: SW480, 50 μM, imaged 24 h
Protocol: as §2, §3

[9] = system: RKO cells; experiment: Live cell imaging of RKO cells; format: cell-based, human; details: 50 μM, imaged 24 h
Protocol: as §2, §3

| Compound | Ubiquitinated securin (Mean ± SD) [1] | binding to the APC/C (pull-down) [2] | difference between KM without and with inhibitor ([3]; 3 μM G3-6, securin titration, unpaired t test p=0.0886) | inhibition of APC/C activity in vitro compared with TAME ([3]; 100 μM, UBE2C, reaction time 45 min, 3 independent assays) | inhibition of APC/C activity in vitro, titration ([3]; 25, 50, 75 and 100 μM, UBE2C, reaction time 45 min) | IC50 ([3]; UBE2C, 0.01-100 μM, reaction time 10 min, methylated ubiquitin, ubiquitinated securin, 4 independent experiments) | Ki ([3]; model for non-competitive inhibition in Prism 6.0, 3 μM inhibitor, securin 50-5000 nM, reaction time 2 min, read-out: inhibitory constant (Ki)) | mechanism of action (type of the inhibition) ([3]; titration of substrate (securin)) | IC50 (in words) ([3]; titration of the G3-6 molecule) | inhibition of APC/C activity driven by different E2 enzymes [4] | effect on mitosis (length of mitosis) [5] | cell fate (cell death) [6] | effect on mitosis (length of mitosis) [6] | cell fate (cell death) ([7]; imaged 24 h) | effect on mitosis (length of mitosis) ([7]; imaged 24 h) | cell fate (cell death) ([7]; imaged 48 h) | effect on mitosis (length of mitosis) ([7]; imaged 48 h) | cell fate (cell death) [8] | effect on mitosis (length of mitosis) [8] | effect on mitosis (length of mitosis) [9] |
| --- | --- | --- | --- | --- | --- | --- | --- | --- | --- | --- | --- | --- | --- | --- | --- | --- | --- | --- | --- | --- |
| CC[C@H](C)[C@@H]1NC(=O)[C@H](CCC(=O)O)NC(=O)[C@H](CCCCN)NC(=O)[C@H]([C@@H](C)CC)NC(=O)[C@](C)(NC(=O)[C@H](Cc2c[nH]c3ccccc23)NC(=O)[C@H](Cc2c[nH]c3ccccc23)NC(=O)[C@H](CCC(=O)O)NC(C)=O)CCCCCCC=CCCC[C@@](C)(C(=O)N[C@@H](CCCNC(=N)N)C(=O)N[C@@H](CCCNC(=N)N)C(=O)N[C@@H](C)C(N)=O)NC(=O)[C@H](CCCNC(=N)N)NC(=O)[C@H](CCC(N)=O)NC1=O [G3-6, Ac-cyclo(4,11)-EWWZIKEIQRXRRA-NH2] (Ac-EWW[R8]IKEIQR[S5]RRA-NH2; staple 4-11) | 3.6 ± 5% | binds specifically to the APC/C | not significant | inhibit APC/C in vitro more efficiently than TAME | inhibits APC/C in vitro the most potently | 1960 nM | 5 µM | non-competitive inhibitor | low micromolar range | inhibits APC/C in vitro independently on employed E2 enzymes |  |  |  |  |  |  |  |  |  |  |
| Ac-GFWFG-NH(CH2)2OCH2CO-cyclo(4,11)-EWWZIKEIQRXRRA-NH2 ({Ac-Gly-Phe-Trp-Phe-Gly-miniPEG}-EWW[R8]IKEIQR[S5]RRA-NH2; staple 4-11) [G3-6_mod1_miniPEG] |  |  |  |  |  |  |  |  |  |  | prolongs mitosis | cause cell death after a metaphase arrest in a subpopulation | prolongs mitosis | cause cell death after a metaphase arrest in a subpopulation | prolongs mitosis | causes cell death after metaphase | prolongs mitosis by arresting cells in metaphase; also recorded: induces a metaphase delay | cause cell death after a metaphase arrest in a subpopulation | prolongs mitosis | prolongs mitosis |

Reference: US20230391828A1, “REGULATORS OF CELL DIVISION” (TECHNISCHE UNIVERSITÄT DRESDEN, priority 2020, published 2023)
